Laboratory results taken from US20260287579A1, “METHOD FOR NON-INVASIVE HYPOXIA DETECTION” (BioVentures, LLC, priority 2023, published 2026).

What was measured:
[1] = test system: 4T1 murine breast cancer cells; experiment: Bead-assisted flow cytometry for CD81+/Pimo+ vesicles from hypoxic or oxic cell cultures; format: cell-based; conditions: 100 μM pimonidazole, 24 hours, 0.5% oxygen vs regular air
Procedure: Isolating exosome from cell culture and Flow Cytometry analysis of isolated exosomes utilizing bead-assisted assay (FIGS. 10A-10B): 4T1 murine breast cancer cells were cultured in DMEM medium containing 10% Fetal Bovine Serum (FBS) at 37° C. in a humidified incubator with 5% CO2 and sub-cultured twice a week. For isolation of exosomes from 4T1 cultures, 1 million cells were plated in 10 cm plates and allowed to adhere overnight in the incubator. Cells were then washed with PBS, and the medium was changed to a medium containing 5% exosome-depleted FBS. Plates were grouped into four sets of five plates each. 100 μM pimonidazole was added to two sets, half of plates were incubated in a regular air incubator, and the other half in an incubator containing 0.5% Oxygen. After 24 hours, the medium was collected and subjected to sequential centrifugation at 1200, 3000, 10000, and 35000 rpm for 5, 15, 45 minutes, and 4 hours respectively. The final pellet was washed with PBS and centrifuged at 35000 rpm for 2 hours before being resuspended in 100 μl of PBS. The exosome amount was estimated using a BCA protein assay and the exosomes size was confirmed using a Nanoparticle Tracking Analyzer (NTA Instrument). […] Following the manufacture protocols, compensation beads were used to optimize fluorescence compensation settings and correct for spectral overlap between fluorophores. […]

[2] = test system: exosomes isolated from hypoxic cells; experiment: Fluorescent plate reader detection of pimonidazole adducts in isolated exosomes with FITC anti-pimonidazole antibody; format: cell-based; conditions: FITC-labeled anti-pimonidazole antibody, plate reader 485/528 nm
Text: FIGS. 10A-10B are charts showing results from a flow cytometry-based bead assay designed to allow conventional flow cytometers to assess the presence of various markers on exosome sized particles. This is accomplished by using beads of known size which are bound by exosomes if they have the marker (antibody target) in question. It is clear that exosomes derived from hypoxic cells have an augmented amount of pimonidazole adducts present. The inventors also tested for the general immunoreactivity of hypoxic-cell derived exosomes using a standard plate reader and a commercially available fluorescently conjugated anti-pimonidazole antibody. Briefly, isolated exosomes from cell culture medium from mouse serum samples were, suspended in 1% bovine serum albumin, and incubated with a fluorescently tagged anti-pimonidazole antibody. After a period of 2 hours or overnight, the exosomes were washed twice, resuspended in PBS and the fluorescent signal was determined using a Cytation 5 multi-mode plate reader.
Labeling exosomes with FITC-conjugated anti-pimonidazole antibody and quantifying the labeled exosomes'(FIG. 11): 10-40 μg of exosomes were utilized for antibody labeling in a 100 μl total volume containing 1% BSA as a blocking reagent. […] Fluorescence readings were obtained using a Cytation 5 plate reader at excitation/emission wavelengths of 485/528 nm (+/−20 nm).

O=[N+]([O-])c1nccn1CC(O)CN1CCCCC1 (centres unmarked) [pimonidazole]
enhancement in percent of vesicles labeled in hypoxic vs oxic conditions [1]: 4 fold | increase in fluorescence signal, exosomes from hypoxic cells vs cells grown in normal oxygen [2]: ~2.5 fold
